We go through three compounds from paper PMC5107307 (ACS chemical biology, 2016).

The structures appear in SMILES notation. Where “and” joins values, the source holds several entries; their conditions need not be identical. Identical values can stand only once. Non-standard residues stand in square brackets, D forms with d. Residues, ends and D or L forms follow the SMILES beside them.

For data set [1] the following is noted: prior pharmacokinetic/pharmacodynamic data; cited from earlier work.
The conditions of data set [2]: radiolabeled peptide; cited from earlier work.
In data set [3] the target is T1, PTHR1 (Homo sapiens, UniProt Q03431).
T1 sequence (Q03431 27-593): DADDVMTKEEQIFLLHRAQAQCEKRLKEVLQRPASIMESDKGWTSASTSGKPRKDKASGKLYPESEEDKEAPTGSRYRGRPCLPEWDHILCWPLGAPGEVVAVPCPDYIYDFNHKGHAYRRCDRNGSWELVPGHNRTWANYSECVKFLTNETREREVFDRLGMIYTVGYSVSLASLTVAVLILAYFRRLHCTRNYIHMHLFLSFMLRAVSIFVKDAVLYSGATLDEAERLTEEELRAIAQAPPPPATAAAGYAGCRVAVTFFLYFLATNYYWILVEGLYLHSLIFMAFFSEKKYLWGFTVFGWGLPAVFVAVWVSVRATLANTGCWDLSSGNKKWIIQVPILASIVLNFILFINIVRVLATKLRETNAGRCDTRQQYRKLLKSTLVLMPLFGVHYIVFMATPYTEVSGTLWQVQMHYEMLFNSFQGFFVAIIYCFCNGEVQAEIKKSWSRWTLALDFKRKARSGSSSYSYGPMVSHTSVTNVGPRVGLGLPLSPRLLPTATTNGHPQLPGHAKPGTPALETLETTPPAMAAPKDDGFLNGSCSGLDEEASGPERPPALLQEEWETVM
Put plainly: PTHR1 competition binding assay with 125I-PTH.

In data set [4] the target is T1, PTHR1. Put plainly: Antagonism of agonist-stimulated cAMP generation in SGS-72 cells. The format is cell-based.
The target in data set [5] is T2, bovine trypsin (Bos taurus, UniProt P00760).
T2 sequence (P00760 24-246): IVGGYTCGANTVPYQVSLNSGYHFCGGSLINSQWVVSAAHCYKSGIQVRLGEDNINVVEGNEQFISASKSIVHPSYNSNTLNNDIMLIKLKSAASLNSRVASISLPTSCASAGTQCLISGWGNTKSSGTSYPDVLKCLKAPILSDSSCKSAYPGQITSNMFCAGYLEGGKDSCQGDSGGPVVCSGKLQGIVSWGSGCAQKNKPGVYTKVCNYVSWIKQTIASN
Put plainly: in vitro. The format is in vitro ADME.

The test system of data set [6] is female CD1 mice. Put plainly: Antagonism of PTH. The format is in vivo, mouse. As to conditions: antagonist 500 nmol/kg s.c. one hour after PTH(1–34) 10 nmol/kg.
The target of data set [7] is proteinase K (Parengyodontium album, UniProt P06873). Put plainly: in vitro. The note with it: fungal, proteinase K (isolated protease).
proteinase K, sequence (P06873 106-384): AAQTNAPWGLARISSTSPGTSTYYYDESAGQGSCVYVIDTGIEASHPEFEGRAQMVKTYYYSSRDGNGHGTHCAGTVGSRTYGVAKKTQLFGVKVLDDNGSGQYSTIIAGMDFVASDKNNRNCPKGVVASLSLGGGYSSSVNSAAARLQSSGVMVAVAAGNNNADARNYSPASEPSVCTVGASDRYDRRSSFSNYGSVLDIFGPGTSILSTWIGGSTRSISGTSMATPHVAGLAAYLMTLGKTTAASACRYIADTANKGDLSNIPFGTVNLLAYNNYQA
The subject of data set [8] is SGS-72 cells. Put plainly: Effect on basal cAMP levels in SGS-72 cells. As to conditions: Fig. S1a. A general note: Cyclic AMP is a second messenger, typically raised through Gs and lowered through Gi signalling.
Data set [9] has as its target T3, VIP-receptor 1 (VIPR1) (Homo sapiens, UniProt P32241).
T3 sequence (P32241 31-457): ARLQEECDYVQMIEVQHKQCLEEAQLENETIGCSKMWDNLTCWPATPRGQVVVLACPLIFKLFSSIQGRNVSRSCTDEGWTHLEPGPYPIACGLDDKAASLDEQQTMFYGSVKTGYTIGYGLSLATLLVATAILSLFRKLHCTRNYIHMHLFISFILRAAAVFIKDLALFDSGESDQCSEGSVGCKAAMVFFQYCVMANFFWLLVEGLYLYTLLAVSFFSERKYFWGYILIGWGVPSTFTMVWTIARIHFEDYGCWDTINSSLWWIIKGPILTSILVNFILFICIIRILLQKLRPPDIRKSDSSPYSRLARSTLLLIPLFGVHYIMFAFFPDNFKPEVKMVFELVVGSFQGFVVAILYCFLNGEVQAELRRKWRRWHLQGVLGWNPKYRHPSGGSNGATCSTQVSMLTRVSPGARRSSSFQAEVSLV
Put plainly: Inhibition of VIP-induced cAMP production in SGS-72 cells.

The target of data set [10] is β2-adrenergic receptor (Homo sapiens, UniProt P07550). Put plainly: Effect on isoproterenol-stimulated cAMP production in SGS-72 cells. As to conditions: Fig. S1b.
β2-adrenergic receptor, sequence (P07550 whole entry): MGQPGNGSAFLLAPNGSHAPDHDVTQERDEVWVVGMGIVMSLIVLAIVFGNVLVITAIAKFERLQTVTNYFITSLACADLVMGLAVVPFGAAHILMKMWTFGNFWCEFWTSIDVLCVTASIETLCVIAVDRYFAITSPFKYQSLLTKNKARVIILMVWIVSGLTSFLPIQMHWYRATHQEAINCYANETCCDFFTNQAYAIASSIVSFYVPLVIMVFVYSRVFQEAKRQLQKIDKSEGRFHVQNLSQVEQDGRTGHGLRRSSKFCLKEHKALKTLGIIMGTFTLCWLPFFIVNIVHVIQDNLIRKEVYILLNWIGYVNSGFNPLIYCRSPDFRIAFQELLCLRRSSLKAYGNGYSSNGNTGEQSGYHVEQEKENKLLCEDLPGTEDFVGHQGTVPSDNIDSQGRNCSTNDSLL
In data set [11] the test system is constitutively active PTHR1 variants. As to conditions: cited from earlier work.

For `CC[C@H](C)[C@H](NC(=O)[C@H](CCC(=O)O)NC(=O)[C@H](CO)NC(=O)[C@@H](NC(=O)[C@@H](N)CO)C(C)C)C(=O)N[C@@H](CCC(N)=O)C(=O)N[C@@H](CC(C)C)C(=O)N[C@@H](CCSC)C(=O)N[C@@H](Cc1cnc[nH]1)C(=O)N[C@@H](CC(N)=O)C(=O)N[C@@H](CC(C)C)C(=O)NCC(=O)N[C@@H](CCCCN)C(=O)N[C@@H](Cc1cnc[nH]1)C(=O)N[C@@H](CC(C)C)C(=O)N[C@@H](CC(N)=O)C(=O)N[C@@H](CO)C(=O)N[C@@H](CCSC)C(=O)N[C@@H](CCC(=O)O)C(=O)N[C@@H](CCCN=C(N)N)C(=O)N[C@H](C(=O)N[C@@H](CCC(=O)O)C(=O)N[C@@H](Cc1c[nH]c2ccccc12)C(=O)N[C@@H](CC(C)C)C(=O)N[C@@H](CCCN=C(N)N)C(=O)N[C@@H](CCCCN)C(=O)N[C@@H](CCCCN)C(=O)N[C@@H](CC(C)C)C(=O)N[C@@H](CCC(N)=O)C(=O)N[C@@H](CC(=O)O)C(=O)N[C@H](C(=O)N[C@@H](Cc1cnc[nH]1)C(=O)N[C@@H](CC(N)=O)C(=O)N[C@@H](Cc1ccccc1)C(=O)O)C(C)C)C(C)C` [PTH(1–34)], the “Half-life of clearance from the circulation” value in data set [1] was 300 to 600 s. Further, the Stability in plasma entry in data set [2] is “highly stable in plasma”.

`CSCC[C@@H](CC(=O)N[C@@H](CCC(=O)O)C(=O)N[C@@H](CCCNC(=N)N)C(=O)N[C@H](C(=O)N[C@@H](CCC(=O)O)CC(=O)N[C@@H](Cc1c[nH]c2ccccc12)C(=O)N[C@@H](CC(C)C)C(=O)N[C@@H](CCCNC(=N)N)C(=O)N[C@@H](CCCCN)CC(=O)N[C@@H](CCCCN)C(=O)N[C@@H](CC(C)C)C(=O)N[C@@H](CCC(N)=O)C(=O)N[C@@H](CC(=O)O)CC(=O)N[C@H](C(=O)N[C@@H](Cc1c[nH]cn1)C(=O)N[C@@H](CC(N)=O)C(=O)N[C@H](CC(N)=O)Cc1ccccc1)C(C)C)C(C)C)NC(=O)[C@H](CO)NC(=O)[C@H](CO)NC(=O)[C@H](CC(C)C)NC(=O)C[C@H](Cc1c[nH]c2ccccc12)NC(=O)[C@H](CCCCN)NC(=O)[C@@H](Cc1c[nH]c2ccccc12)NC(=O)[C@H](CC(C)C)NC(=O)[C@H](CC(N)=O)NC(=O)[C@H](Cc1c[nH]cn1)NC(=O)[C@H](CCSC)NC(=O)[C@@H](N)Cc1ccccc1` [Peptide 2]: the 50% inhibitory concentration (IC50) (usually the concentration at which inhibition is half-maximal) in data set [3] was 4.5 ± 1.2 nM; in data set [4] it was 6.15 nM and 10.6 nM and 2.07 nM; in [9], > 1000 nM. In data set [4] (SGS-72 cells, cAMP response to M-PTH(1–11)), the “Reduction in M-PTH(1–11) inhibition potency of 2 in comparison to 1” value is listed as < 5 fold. Also, the “Protease stability, half life, Trypsin” value in [5] was > 1200 s. Further, the “Effect on PTH(1–34)-induced blood Ca2+ response, antagonist given after agonist” value in data set [6] is listed as “only small effects”. In [6], the “Effect on PTH(1–34)-induced blood Pi response, antagonist given after agonist” value is “only small effects”. Also, the half-life (commonly how long it takes for the measured level to halve) in [7] was 150 s. In addition, the “Effect on low basal cAMP levels in SGS-72 cells” value in data set [8] is given as “neither α-peptide 1 nor α/β-peptide 2 substantially reduces”. In data set [10], the “Effect on stimulation of cAMP production caused by isoproterenol” value is “neither α-peptide 1 nor α/β-peptide 2 substantially reduces”.

As to `CSCC[C@H](NC(=O)[C@H](CO)NC(=O)[C@H](CO)NC(=O)[C@H](CC(C)C)NC(=O)[C@H](Cc1c[nH]cn1)NC(=O)[C@H](CCCCN)NC(=O)[C@@H](Cc1c[nH]c2ccccc12)NC(=O)[C@H](CC(C)C)NC(=O)[C@H](CC(N)=O)NC(=O)[C@H](Cc1c[nH]cn1)NC(=O)[C@H](CCSC)NC(=O)[C@@H](N)Cc1ccccc1)C(=O)N[C@@H](CCC(=O)O)C(=O)N[C@@H](CCCNC(=N)N)C(=O)N[C@H](C(=O)N[C@@H](CCC(=O)O)C(=O)N[C@@H](Cc1c[nH]c2ccccc12)C(=O)N[C@@H](CC(C)C)C(=O)N[C@@H](CCCNC(=N)N)C(=O)N[C@@H](CCCCN)C(=O)N[C@@H](CCCCN)C(=O)N[C@@H](CC(C)C)C(=O)N[C@@H](CCC(N)=O)C(=O)N[C@@H](CC(=O)O)C(=O)N[C@H](C(=O)N[C@@H](Cc1c[nH]cn1)C(=O)N[C@@H](CC(N)=O)C(=O)N[C@@H](Cc1ccccc1)C(N)=O)C(C)C)C(C)C` [Peptide 1, bPTH(7–34) DTrp^12] (H-FMHNL[dW]KHLSSMERVEWLRKKLQDVHNF-NH2; N-terminus assumed), the concentration for half-maximal inhibition (IC50) is 4.7 ± 1.2 nM in [3] and > 1000 nM in [9]. In data set [5], the “Protease stability, half life, Trypsin” value turned out to be 42 s. The half-life in [5] (bovine, isolated enzyme trypsin) worked out at 42 s; in data set [7], 7.8 s. Besides, in data set [6], the “Effect on PTH(1–34)-induced blood Ca2+ response, antagonist given after agonist” value was “only small effects”. Besides, the “Effect on PTH(1–34)-induced blood Pi response, antagonist given after agonist” value in data set [6] is listed as “only small effects”. Besides, the “Inverse agonism of cAMP signaling at constitutively active PTHR1 variants” value in [11] is on record as “acts as an inverse agonist”. For the same compound, the “Effect on low basal cAMP levels in SGS-72 cells” value in [8] is reported as “neither α-peptide 1 nor α/β-peptide 2 substantially reduces”. Besides, the “Effect on stimulation of cAMP production caused by isoproterenol” value in data set [10] was “neither α-peptide 1 nor α/β-peptide 2 substantially reduces”.
